The record followed here is PMC12196347, “Evaluating Triazole-Substituted Pyrrolopyrimidines as CSF1R Inhibitors” (Molecules, 2025).

Converted amounts (≈) assume the structure as drawn.

One series has as its target T1, CSF1R (Homo sapiens, UniProt P07333).
T1 sequence (P07333 539-972 limits assumed): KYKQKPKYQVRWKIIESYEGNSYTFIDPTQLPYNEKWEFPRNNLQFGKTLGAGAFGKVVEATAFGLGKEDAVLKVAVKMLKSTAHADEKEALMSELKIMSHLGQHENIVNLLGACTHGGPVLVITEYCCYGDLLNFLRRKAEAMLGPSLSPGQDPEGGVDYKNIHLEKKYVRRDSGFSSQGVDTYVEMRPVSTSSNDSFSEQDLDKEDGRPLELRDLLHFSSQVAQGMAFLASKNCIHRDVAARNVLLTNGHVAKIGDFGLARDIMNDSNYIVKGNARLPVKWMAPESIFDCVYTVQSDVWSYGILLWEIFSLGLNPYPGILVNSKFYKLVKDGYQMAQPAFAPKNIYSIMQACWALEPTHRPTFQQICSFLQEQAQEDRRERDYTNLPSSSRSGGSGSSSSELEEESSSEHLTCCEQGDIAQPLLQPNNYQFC
Briefly: CSF1R enzymatic inhibition, TR-FRET-based LANCE Ultra assay. The series is classed as biochemical. Conditions: single 8-point titrations, ATP concentration 25 µM, read-out: Enz. IC50. A general note: TR-FRET usually uses a lanthanide donor and a delayed reading to cut background.

Series [1] deals with IL-3 dependent Ba/F3 cell line (CSF1R independent). The experiment in a line: Control assay for cellular toxicity, Ba/F3 cells dependent on IL-3. The series is classed as cell-based. Conditions: Mus musculus, BaF3; Ba/F3 cells dependent on IL-3, control for cellular toxicity.
For another series, the system named is CSF1R Ba/F3 cells. Briefly: Cell viability assay, Ba/F3 cells engineered to be dependent on CSF1R. The series is classed as cell-based. Conditions: duplicate measurements; for IC50: Mus musculus, BaF3, Ba/F3 cells dependent on CSF1R; for CSF1R Ba/F3 IC50: Ba/F3 cells dependent on CSF1R.
A short description of series [2]: Kinetic solubility, spectrophotometric. The series is classed as physicochemical. Conditions: aqueous buffer, kinetic from dmso stock, spectrophotometrically at pH 7.4 in HEPES buffer.

Regarding `Cc1cccc(CN(C)c2ncnc3[nH]c(-c4cn(-c5ccccc5)nn4)cc23)c1` [Compound 18a, N-Methyl-N-(3-methylbenzyl)-6-(1-phenyl-1H-1,2,3-triazol-4-yl)-7H-pyrrolo[2,3-d]pyrimidin-4-amine], the IC50 was 1.9 nM on CSF1R, > 10000 nM in series [1] and > 10000 nM in the series with CSF1R Ba/F3 cells. The kinetic solubility in series [2] worked out at 0.3 µM (≈ 0.119 µg/mL).

As to `CN(CC1CCOCC1)c1ncnc2[nH]c(-c3cn(-c4ccccc4)nn3)cc12` [Compound 18b, N-Methyl-6-(1-phenyl-1H-1,2,3-triazol-4-yl)-N-((tetrahydro-2H-pyran-4-yl)methyl)-7H-pyrrolo[2,3-d]pyrimidin-4-amine], the IC50 (in series [1]; in the series on CSF1R Ba/F3 cells) was > 10000 nM throughout. This compound yielded a kinetic solubility in series [2] of 14 µM (≈ 5.45 µg/mL).

Take `Cc1cccc(CN(C)c2ncnc3[nH]c(-c4cn(-c5ccc(F)cc5)nn4)cc23)c1` [Compound 19a, 6-(1-(4-Fluorophenyl)-1H-1,2,3-triazol-4-yl)-N-methyl-N-(3-methylbenzyl)-7H-pyrrolo[2,3-d]pyrimidin-4-amine]: the IC50 on CSF1R is 7.7 nM; in series [1], > 10000 nM; with CSF1R Ba/F3 cells it was > 10000 nM. The compound also displayed a kinetic solubility in series [2] of 0.4 µM (≈ 0.165 µg/mL).

Take `CN(CC1CCOCC1)c1ncnc2[nH]c(-c3cn(-c4ccc(F)cc4)nn3)cc12` [Compound 19b, 6-(1-(4-Fluorophenyl)-1H-1,2,3-triazol-4-yl)-N-methyl-N-((tetrahydro-2H-pyran-4-yl)methyl)-7H-pyrrolo[2,3-d]pyrimidin-4-amine]: the IC50 at CSF1R was 2.1 nM; in series [1], > 10000 nM; with CSF1R Ba/F3 cells, > 10000 nM. Moreover, the “CSF1R Ba/F3 IC50” value in the series with CSF1R Ba/F3 cells is reported as “No measurable cell activity”. Moreover, the kinetic solubility in series [2] amounted to 11 µM (≈ 4.48 µg/mL).

With `Cc1ccc(-n2cc(-c3cc4c(N(C)Cc5cccc(C)c5)ncnc4[nH]3)nn2)cc1` [Compound 20a, N-Methyl-N-(3-methylbenzyl)-6-(1-(p-tolyl)-1H-1,2,3-triazol-4-yl)-7H-pyrrolo[2,3-d]pyrimidin-4-amine], the IC50 is 28.2 nM on CSF1R, > 10000 nM in series [1] and > 10000 nM in the series on CSF1R Ba/F3 cells. Besides, the kinetic solubility in series [2] was found to be 3 µM (≈ 1.23 µg/mL).

With `Cc1ccc(-n2cc(-c3cc4c(N(C)CC5CCOCC5)ncnc4[nH]3)nn2)cc1` [Compound 20b, N-Methyl-N-((tetrahydro-2H-pyran-4-yl)methyl)-6-(1-(p-tolyl)-1H-1,2,3-triazol-4-yl)-7H-pyrrolo[2,3-d]pyrimidin-4-amine], the half-maximal inhibitory concentration (IC50) was 9.1 nM on CSF1R, > 10000 nM in series [1] and 3200 ± 900 nM in the series on CSF1R Ba/F3 cells. Moreover, the solubility (kinetic) in series [2] worked out at 0.7 µM (≈ 0.282 µg/mL).

`COc1ccc(-n2cc(-c3cc4c(N(C)Cc5cccc(C)c5)ncnc4[nH]3)nn2)cc1` [Compound 21a, 6-(1-(4-Methoxyphenyl)-1H-1,2,3-triazol-4-yl)-N-methyl-N-(3-methylbenzyl)-7H-pyrrolo[2,3-d]pyrimidin-4-amine]: the IC50 on CSF1R is 5.9 nM; in series [1], > 10000 nM; with CSF1R Ba/F3 cells, 6000 nM. Also, the solubility (kinetic) in series [2] came to 1.3 µM (≈ 0.553 µg/mL).

In the case of `Cc1cccc(CN(C)c2ncnc3[nH]c(-c4cn(-c5cccnc5)nn4)cc23)c1` [Compound 22a, N-Methyl-N-(3-methylbenzyl)-6-(1-(pyridin-3-yl)-1H-1,2,3-triazol-4-yl)-7H-pyrrolo[2,3-d]pyrimidin-4-amine], the IC50 was 2.3 nM on CSF1R, > 10000 nM in series [1] and 1200 ± 200 nM in the series on CSF1R Ba/F3 cells. The compound further returned a kinetic solubility in series [2] of 11 µM (≈ 4.36 µg/mL).

In the case of `CN(CC1CCOCC1)c1ncnc2[nH]c(-c3cn(-c4cccnc4)nn3)cc12` [Compound 22b, N-Methyl-6-(1-(pyridin-3-yl)-1H-1,2,3-triazol-4-yl)-N-((tetrahydro-2H-pyran-4-yl)methyl)-7H-pyrrolo[2,3-d]pyrimidin-4-amine], the IC50 at CSF1R was 2.1 nM; in series [1], > 10000 nM; in the series with CSF1R Ba/F3 cells it was 1600 ± 300 nM. Besides, in series [2], the solubility (kinetic) was found to be 37 µM (≈ 14.4 µg/mL).

As to `Cc1cccc(CN(C)c2ncnc3[nH]c(-c4cn(Cc5ccccc5)nn4)cc23)c1` [Compound 23a, 6-(1-Benzyl-1H-1,2,3-triazol-4-yl)-N-methyl-N-(3-methylbenzyl)-7H-pyrrolo[2,3-d]pyrimidin-4-amine], the IC50 is 2 nM at CSF1R, > 10000 nM in series [1] and > 10000 nM in the series on CSF1R Ba/F3 cells. Besides, in series [2], the solubility (kinetic) was 0.3 µM (≈ 0.123 µg/mL).

As for `CN(CC1CCOCC1)c1ncnc2[nH]c(-c3cn(Cc4ccccc4)nn3)cc12` [Compound 23b, 6-(1-Benzyl-1H-1,2,3-triazol-4-yl)-N-methyl-N-((tetrahydro-2H-pyran-4-yl)methyl)-7H-pyrrolo[2,3-d]pyrimidin-4-amine], the IC50 on CSF1R is < 1 nM; in series [1] it was > 10000 nM; in the series on CSF1R Ba/F3 cells, 3700 ± 1900 nM. Further, the solubility (kinetic) in series [2] worked out at 4.9 µM (≈ 1.98 µg/mL).

On to `Cc1cccc(CN(C)c2ncnc3[nH]c(-c4cn(Cc5ccc(F)cc5)nn4)cc23)c1` [Compound 24a, 6-(1-(4-Fluorobenzyl)-1H-1,2,3-triazol-4-yl)-N-methyl-N-(3-methylbenzyl)-7H-pyrrolo[2,3-d]pyrimidin-4-amine], for which the IC50 was 2 nM at CSF1R, > 10000 nM in series [1] and > 10000 nM with CSF1R Ba/F3 cells. Further, the kinetic solubility in series [2] turned out to be 0.2 µM (≈ 0.0855 µg/mL).

`CN(CC1CCOCC1)c1ncnc2[nH]c(-c3cn(Cc4ccc(F)cc4)nn3)cc12` [Compound 24b, 6-(1-(4-Fluorobenzyl)-1H-1,2,3-triazol-4-yl)-N-methyl-N-((tetrahydro-2H-pyran-4-yl)methyl)-7H-pyrrolo[2,3-d]pyrimidin-4-amine]: the IC50 at CSF1R is 1.5 nM; in series [1], > 10000 nM; in the series on CSF1R Ba/F3 cells, 4600 ± 2700 nM. The same compound displayed a solubility (kinetic) in series [2] of 1.7 µM (≈ 0.717 µg/mL).

`Cc1ccc(Cn2cc(-c3cc4c(N(C)Cc5cccc(C)c5)ncnc4[nH]3)nn2)cc1` [Compound 25a, N-Methyl-N-(3-methylbenzyl)-6-(1-(4-methylbenzyl)-1H-1,2,3-triazol-4-yl)-7H-pyrrolo[2,3-d]pyrimidin-4-amine]: the figures for the IC50 (at CSF1R; in series [1]; with CSF1R Ba/F3 cells) were 6.3 nM, > 10000 nM and > 10000 nM, respectively. For the same compound, the kinetic solubility in series [2] was found to be 1.1 µM (≈ 0.466 µg/mL).

`COc1ccc(Cn2cc(-c3cc4c(N(C)Cc5cccc(C)c5)ncnc4[nH]3)nn2)cc1` [Compound 26a, 6-(1-(4-Methoxybenzyl)-1H-1,2,3-triazol-4-yl)-N-methyl-N-(3-methylbenzyl)-7H-pyrrolo[2,3-d]pyrimidin-4-amine]: the IC50 on CSF1R is 5.8 nM; in series [1] it was > 10000 nM; in the series on CSF1R Ba/F3 cells, 2800 ± 300 nM. In series [2], the solubility (kinetic) was found to be 4.6 µM (≈ 2.02 µg/mL).

With `COc1ccc(Cn2cc(-c3cc4c(N(C)CC5CCOCC5)ncnc4[nH]3)nn2)cc1` [Compound 26b, 6-(1-(4-Methoxybenzyl)-1H-1,2,3-triazol-4-yl)-N-methyl-N-((tetrahydro-2H-pyran-4-yl)methyl)-7H-pyrrolo[2,3-d]pyrimidin-4-amine], the IC50 at CSF1R is < 1 nM; in series [1], > 10000 nM; in the series with CSF1R Ba/F3 cells, 1500 ± 500 nM. This compound registered a kinetic solubility in series [2] of 7.2 µM (≈ 3.12 µg/mL).

Regarding `Cc1cccc(CN(C)c2ncnc3[nH]c(-c4cn(CCCO)nn4)cc23)c1` [Compound 28a, 3-(4-(4-(Methyl(3-methylbenzyl)amino)-7H-pyrrolo[2,3-d]pyrimidin-6-yl)-1H-1,2,3-triazol-1-yl)propan-1-ol], the IC50 at CSF1R is < 1 nM; in series [1], > 10000 nM; in the series with CSF1R Ba/F3 cells it was 1000 ± 100 nM. For the same compound, the kinetic solubility in series [2] came out at 5.5 µM (≈ 2.08 µg/mL).

As for `CN(CC1CCOCC1)c1ncnc2[nH]c(-c3cn(CCCO)nn3)cc12` [Compound 28b, 3-(4-(4-(Methyl((tetrahydro-2H-pyran-4-yl)methyl)amino)-7H-pyrrolo[2,3-d]pyrimidin-6-yl)-1H-1,2,3-triazol-1-yl)propan-1-ol], the IC50 is 1.1 nM on CSF1R, > 10000 nM in series [1] and > 10000 nM with CSF1R Ba/F3 cells. Besides, the “CSF1R Ba/F3 IC50” value in the series with CSF1R Ba/F3 cells was “inactive”. Also, the solubility (kinetic) in series [2] was found to be 495 µM (≈ 184 µg/mL).

For the compound `Cc1cccc(CN(C)c2ncnc3[nH]c(-c4cn(C5CCOCC5)nn4)cc23)c1` [Compound 29a, N-Methyl-N-(3-methylbenzyl)-6-(1-(tetrahydro-2H-pyran-4-yl)-1H-1,2,3-triazol-4-yl)-7H-pyrrolo[2,3-d]pyrimidin-4-amine], the IC50 on CSF1R was < 1 nM; in series [1], > 10000 nM; with CSF1R Ba/F3 cells it was > 10000 nM. In addition, in series [2], the solubility (kinetic) worked out at 20 µM (≈ 8.07 µg/mL).

Consider `CN(CC1CCOCC1)c1ncnc2[nH]c(-c3cn(C4CCOCC4)nn3)cc12` [Compound 29b, N-Methyl-6-(1-(tetrahydro-2H-pyran-4-yl)-1H-1,2,3-triazol-4-yl)-N-((tetrahydro-2H-pyran-4-yl)methyl)-7H-pyrrolo[2,3-d]pyrimidin-4-amine], for which the figures for the IC50 (on CSF1R; in series [1]; with CSF1R Ba/F3 cells) were < 1 nM, > 10000 nM and > 10000 nM, respectively. For the same compound, the “CSF1R Ba/F3 IC50” value in the series on CSF1R Ba/F3 cells is reported as “No measurable cell activity”. This compound also yielded a solubility (kinetic) in series [2] of 76 µM (≈ 30.2 µg/mL).

As usually defined, the IC50 is the point on the concentration scale where inhibition reaches its midpoint. For orientation: solubility (kinetic) means the concentration staying in solution when a stock, usually in DMSO, is diluted into the medium.
